Species: Rattus norvegicus
Assay: Open TG-GATES - Regimen: Single
Format: toxicity, organism-based, Sprague-Dawley
Set-up: regimen Single, gender Male, age 6 weeks
Settings: in vivo, po, route gavage; for APTT / Bas / Eos / Fbg / Hb / Ht / Lym / MCH / MCHC / MCV / Mono / Neu / PT / Plat / RBC / Ret / WBC: tissue Blood; for KIDNEY_L / KIDNEY_R / KIDNEY_TOTAL: tissue Kidney; for LIVER: tissue Liver; for ALP / ALT / AST / BUN / CRE / Ca / Cl / DBIL / GLC / IP / K / LDH / Na / PL / RALB / TBIL / TC / TP / gamma-GTP: tissue Plasma
[1] = 5 mg/kg, 3 h, dose level Middle
[2] = 5 mg/kg, 6 h, dose level Middle
[3] = 5 mg/kg, 9 h, dose level Middle

O=P1(N(CCCl)CCCl)NCCCO1 (stereo not given) [CYCLOPHOSPHAMIDE ANHYDROUS]
TERMINAL_BW (2 mg/kg, 24 h, dose level Low): 197.9 g
APTT (2 mg/kg, 24 h, dose level Low): 22 s
Bas (2 mg/kg, 24 h, dose level Low): 0%
Eos (2 mg/kg, 24 h, dose level Low): 1%
Fbg (2 mg/kg, 24 h, dose level Low): 284.2 mg/dL
Hb (2 mg/kg, 24 h, dose level Low): 13.3 g/dL
Ht (2 mg/kg, 24 h, dose level Low): 39.7%
Lym (2 mg/kg, 24 h, dose level Low): 82%
MCH (2 mg/kg, 24 h, dose level Low): 21.1 pg
MCHC (2 mg/kg, 24 h, dose level Low): 33.5%
MCV (2 mg/kg, 24 h, dose level Low): 63 fL
Mono (2 mg/kg, 24 h, dose level Low): 2.2%
Neu (2 mg/kg, 24 h, dose level Low): 14.2%
PT (2 mg/kg, 24 h, dose level Low): 17 s
Plat (2 mg/kg, 24 h, dose level Low): 117.1 x10_4/uL
RBC (2 mg/kg, 24 h, dose level Low): 630.8 x10_4/ul
Ret (2 mg/kg, 24 h, dose level Low): 7%
WBC (2 mg/kg, 24 h, dose level Low): 74.3 x10_2/uL
KIDNEY_L (2 mg/kg, 24 h, dose level Low): 0.9 g
KIDNEY_R (2 mg/kg, 24 h, dose level Low): 0.9 g
KIDNEY_TOTAL (2 mg/kg, 24 h, dose level Low): 1.8 g
LIVER (2 mg/kg, 24 h, dose level Low): 9.1 g
ALP (2 mg/kg, 24 h, dose level Low): 1746.6 IU/L
ALT (2 mg/kg, 24 h, dose level Low): 44.6 IU/L
AST (2 mg/kg, 24 h, dose level Low): 72.8 IU/L
BUN (2 mg/kg, 24 h, dose level Low): 17.4 mg/dL
CRE (2 mg/kg, 24 h, dose level Low): 0.2 mg/dL
Ca (2 mg/kg, 24 h, dose level Low): 10.9 mg/dL
Cl (2 mg/kg, 24 h, dose level Low): 106 meq/L
DBIL (2 mg/kg, 24 h, dose level Low): 0 mg/dL
GLC (2 mg/kg, 24 h, dose level Low): 179.6 mg/dL
IP (2 mg/kg, 24 h, dose level Low): 7.5 mg/dL
K (2 mg/kg, 24 h, dose level Low): 4.5 meq/L
LDH (2 mg/kg, 24 h, dose level Low): 207.2 IU/L
Na (2 mg/kg, 24 h, dose level Low): 142.4 meq/L
PL (2 mg/kg, 24 h, dose level Low): 139.6 mg/dL
RALB (2 mg/kg, 24 h, dose level Low): 3 g/dL
TBIL (2 mg/kg, 24 h, dose level Low): 0.006 mg/dL
TC (2 mg/kg, 24 h, dose level Low): 70.6 mg/dL
TP (2 mg/kg, 24 h, dose level Low): 5.5 g/dL
gamma-GTP (2 mg/kg, 24 h, dose level Low): 0.8 IU/L
TERMINAL_BW [1]: 186.6 g
APTT [1]: 22.8 s
Bas [1]: 0%
Eos [1]: 0.8%
Fbg [1]: 290.2 mg/dL
Hb [1]: 12.9 g/dL
Ht [1]: 39%
Lym [1]: 83.6%
MCH [1]: 21.1 pg
MCHC [1]: 33.2%
MCV [1]: 63.7 fL
Mono [1]: 1.4%
Neu [1]: 13.6%
PT [1]: 15.6 s
Plat [1]: 113 x10_4/uL
RBC [1]: 611.6 x10_4/ul
Ret [1]: 8.1%
WBC [1]: 60.2 x10_2/uL
KIDNEY_L [1]: 0.8 g
KIDNEY_R [1]: 0.9 g
KIDNEY_TOTAL [1]: 1.7 g
LIVER [1]: 8.3 g
ALP [1]: 1552.4 IU/L
ALT [1]: 44.4 IU/L
AST [1]: 73.4 IU/L
BUN [1]: 11.2 mg/dL
CRE [1]: 0.1 mg/dL
Ca [1]: 10.6 mg/dL
Cl [1]: 106.4 meq/L
DBIL [1]: 0 mg/dL
GLC [1]: 180.6 mg/dL
IP [1]: 9 mg/dL
K [1]: 4 meq/L
LDH [1]: 175.2 IU/L
Na [1]: 143.8 meq/L
PL [1]: 137.6 mg/dL
RALB [1]: 3 g/dL
TBIL [1]: 0.034 mg/dL
TC [1]: 81.4 mg/dL
TP [1]: 5.4 g/dL
gamma-GTP [1]: 1 IU/L
TERMINAL_BW [2]: 189.8 g
APTT [2]: 22.5 s
Bas [2]: 0%
Eos [2]: 0.4%
Fbg [2]: 311.4 mg/dL
Hb [2]: 13.1 g/dL
Ht [2]: 39.4%
Lym [2]: 78%
MCH [2]: 21.1 pg
MCHC [2]: 33.2%
MCV [2]: 63.6 fL
Mono [2]: 2.8%
Neu [2]: 17.8%
PT [2]: 16.1 s
Plat [2]: 130.3 x10_4/uL
RBC [2]: 618.8 x10_4/ul
Ret [2]: 7.9%
WBC [2]: 86.9 x10_2/uL
KIDNEY_L [2]: 0.9 g
KIDNEY_R [2]: 0.9 g
KIDNEY_TOTAL [2]: 1.8 g
LIVER [2]: 8.4 g
ALP [2]: 1359.6 IU/L
ALT [2]: 39.6 IU/L
AST [2]: 66.8 IU/L
BUN [2]: 8.2 mg/dL
CRE [2]: 0.1 mg/dL
Ca [2]: 10.7 mg/dL
Cl [2]: 107.6 meq/L
DBIL [2]: 0 mg/dL
GLC [2]: 172 mg/dL
IP [2]: 9.5 mg/dL
K [2]: 4.1 meq/L
LDH [2]: 162.6 IU/L
Na [2]: 143.2 meq/L
PL [2]: 139.4 mg/dL
RALB [2]: 2.8 g/dL
TBIL [2]: 0.03 mg/dL
TC [2]: 77.8 mg/dL
TP [2]: 5.3 g/dL
gamma-GTP [2]: 1 IU/L
TERMINAL_BW [3]: 193 g
APTT [3]: 20.2 s
Bas [3]: 0%
Eos [3]: 1%
Fbg [3]: 309 mg/dL
Hb [3]: 12.6 g/dL
Ht [3]: 37.9%
Lym [3]: 71.6%
MCH [3]: 21.1 pg
MCHC [3]: 33.3%
MCV [3]: 63.3 fL
Mono [3]: 2.6%
Neu [3]: 24.4%
PT [3]: 16.3 s
Plat [3]: 115.7 x10_4/uL
RBC [3]: 599.6 x10_4/ul
Ret [3]: 8.6%

Reference: ChEMBL document CHEMBL3885861, “Open TG-GATES”
